# Assay results published in patent publication US8623857B2, “N-phenyl imidazole carboxamide inhibitors of 3-phosphoinositide-dependent protein kinase-1” (Merck Sharp & Dohme Corp., priority 2010, dated 2014).
# Biological target: T1, recombinant human PDK1 (Homo sapiens, UniProt O15530)
# T1 construct: containing amino acids 51-556 of the human PDK1 enzyme; made in house; host or cells: Sf9 insect cells
# T1 sequence (O15530 51-556): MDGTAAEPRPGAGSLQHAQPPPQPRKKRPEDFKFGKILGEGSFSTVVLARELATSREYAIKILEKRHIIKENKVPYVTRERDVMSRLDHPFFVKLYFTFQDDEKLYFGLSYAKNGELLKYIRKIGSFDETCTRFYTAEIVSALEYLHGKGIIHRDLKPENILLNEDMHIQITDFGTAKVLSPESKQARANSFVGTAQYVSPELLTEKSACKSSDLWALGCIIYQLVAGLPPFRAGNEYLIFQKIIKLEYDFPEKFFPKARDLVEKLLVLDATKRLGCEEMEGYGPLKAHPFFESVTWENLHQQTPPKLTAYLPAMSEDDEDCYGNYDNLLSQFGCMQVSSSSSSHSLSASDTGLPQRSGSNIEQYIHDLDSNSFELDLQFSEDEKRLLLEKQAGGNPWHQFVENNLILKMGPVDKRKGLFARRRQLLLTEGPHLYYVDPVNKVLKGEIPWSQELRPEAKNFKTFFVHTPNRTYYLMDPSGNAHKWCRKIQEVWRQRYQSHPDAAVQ
# Assay: PDK1 IMAP fluorescence polarization assay (inhibition of peptide substrate phosphorylation)
# Type: biochemical
# Details: Table 6; 10 nM PDK1 enzyme, 100 nM peptide substrate, 100 nM PIFtide, 2.5 uM ATP, 1.5 hours
row,SMILES,IC50 [nM]
1,"Cc1ccc(C)c(-c2c[nH]c(C(=O)Nc3cccc(F)c3N3CCC(CN)CC3)n2)c1 [Compound 37, N-[2-[4-(aminomethyl)-1-piperidinyl]-3-fluorophenyl]-4-(2,5-dimethylphenyl)-1H-imidazole-2-carboxamide]",1000 to 5000
2,"Cc1cc(-c2c[nH]c(C(=O)Nc3cccc(F)c3N3CCC(C(=O)NCCN)CC3)n2)ccn1 [Compound 83, N-(2-aminoethyl)-1-[2-fluoro-6-[[[4-(2-methyl-4-pyridinyl)-1H-imidazol-2-yl]carbonyl]amino]phenyl]-4-piperidinecarboxamide]",51 to 250
3,"Cc1cc(-c2c[nH]c(C(=O)Nc3cccc(F)c3N3CCC(C(=O)N4CCC(O)(c5ccccn5)CC4)CC3)n2)ccn1 [Compound 96, N-[3-fluoro-2-[4-[[4-hydroxy-4-(2-pyridinyl)-1-piperidinyl]carbonyl]-1-piperidinyl]phenyl]-4-(2-methyl-4-pyridinyl)-1H-imidazole-2-carboxamide]",1000 to 5000
4,"NCC1CCN(c2ccc(-c3cn[nH]c3)cc2NC(=O)c2nc(-c3cn[nH]c3)c[nH]2)CC1 [Compound 51, N-[2-[4-(aminomethyl)-1-piperidinyl]-5-(1H-pyrazol-4-yl)phenyl]-4-(1H-pyrazol-4-yl)-1H-imidazole-2-carboxamide]",251 to 1000
5,"N[C@@H]1CCCN(c2c(F)cccc2NC(=O)c2nc(-c3ccnc(-n4cccn4)c3)c[nH]2)C1 [Compound 39, N-[2-(3(R)-amino-1-piperidinyl)-3-fluorophenyl]-4-[2-(1H-pyrazol-1-yl)-4-pyridinyl]-1H-imidazole-2-carboxamide]",251 to 1000
6,"NCC1CCN(c2c(F)cccc2NC(=O)c2nc(-c3cc(N[C@H](CO)c4ccccc4)nc(N)n3)c[nH]2)CC1 [Compound 77, 4-[2-amino-6-[(2-hydroxy-1(S)-phenylethyl)amino]-4-pyrimidinyl]-N-[2-[4-(aminomethyl)-1-piperidinyl]-3-fluorophenyl]-1H-imidazole-2-carboxamide]",1 to 50
7,"NCC1CCN(c2c(F)cccc2NC(=O)c2nc(-c3cc(NCc4ccccc4)nc(N)n3)c[nH]2)CC1 [Compound 69, N-[2-[4-(aminomethyl)-1-piperidinyl]-3-fluorophenyl]-4-[2-amino-6-[(phenylmethyl)amino]-4-pyrimidinyl]-1H-imidazole-2-carboxamide]",1 to 50
8,"N[C@@H]1CCCN(c2c(F)cccc2NC(=O)c2nc(-c3ccnc(CO)c3)c[nH]2)C1 [Compound 26, N-[2-(3(R)-amino-1-piperidinyl)-3-fluorophenyl]-4-[2-(hydroxymethyl)-4-pyridinyl]-1H-imidazole-2-carboxamide]",1 to 50
9,"Cc1cc(-c2c[nH]c(C(=O)Nc3cccc(F)c3N3CC4CCC(C3)N4)n2)ccn1 [Compound 54, N-[2-(3,8-diazabicyclo[3.2.1]oct-3-yl)-3-fluorophenyl]-4-(2-methyl-4-pyridinyl)-1H-imidazole-2-carboxamide]",1000 to 5000
10,"Cc1cc(-c2c[nH]c(C(=O)Nc3cccc(F)c3N3CCC(C(=O)N4CCOC(CN)C4)CC3)n2)ccn1 (stereo not drawn) [Compound 89, N-[2-[4-[[2-(aminomethyl)-4-morpholinyl]carbonyl]-1-piperidinyl]-3-fluorophenyl]-4-(2-methyl-4-pyridinyl)-1H-imidazole-2-carboxamide]",51 to 250
11,"CCNC(=O)C1CCN(c2c(F)cccc2NC(=O)c2nc(-c3ccnc(C)c3)c[nH]2)CC1 [Compound 60, N-ethyl-1-[2-fluoro-6-[[[4-(2-methyl-4-pyridinyl)-1H-imidazol-2-yl]carbonyl]amino]phenyl]-4-piperidinecarboxamide]",1000 to 5000

# Same assay, conditions: Table 10; compounds 97-132
row,SMILES,IC50 [nM]
1,"CNc1nc(-c2c[nH]c(C(=O)Nc3cccc(F)c3N3CCC(CN)CC3)n2)cc(N2CCOC[C@H]2C)n1 [Compound 121, (R)—N-(2-(4-(aminomethyl)piperidin-1-yl)-3-fluorophenyl)-4-(2-(methylamino)-6-(3-methylmorpholino)pyrimidin-4-yl)-1H-imidazole-2-carboxamide]",1 to 50
